Results from PubChem BioAssay AID2060496 (Molecular Pharmacology Branch, DTP, NCI, 2025).

Tested on: 276233-004-R-J1-PDC complex spheroid viability
Test: Anticancer human tumor 276233-004-R-J1-PDC patient-derived colon adenocarcinoma cell line growth inhibition [GQUAD]
Settings: for IC50: curve of first compound; for viability, T/C: stronger effect = lower value
How it was run: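 Viability of tumor cells grown as complex spheroids with endothelial and stromal cells, exposed to drug combinations. Top concentration at or near clinical Cmax (else 10 microM), diluted in half-log increments.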

[1] = second compound 0.0316 µM, first compound 0.0316 µM
[2] = second compound 0.0316 µM, first compound 0.1 µM
[3] = second compound 0.0316 µM, first compound 0.316 µM
[4] = second compound 0.0316 µM, first compound 1 µM
[5] = second compound 0.0316 µM, first compound 3.16 µM
[6] = second compound 0.0316 µM, first compound 10 µM
[7] = second compound 0.1 µM, first compound 0.0316 µM
[8] = second compound 0.1 µM, first compound 0.1 µM
[9] = second compound 0.1 µM, first compound 0.316 µM
[10] = second compound 0.1 µM, first compound 1 µM
[11] = second compound 0.1 µM, first compound 3.16 µM
[12] = second compound 0.1 µM, first compound 10 µM
[13] = second compound 0.316 µM, first compound 0.0316 µM
[14] = second compound 0.316 µM, first compound 0.1 µM
[15] = second compound 0.316 µM, first compound 0.316 µM
[16] = second compound 0.316 µM, first compound 1 µM
[17] = second compound 0.316 µM, first compound 3.16 µM
[18] = second compound 0.316 µM, first compound 10 µM
[19] = second compound 1 µM, first compound 0.0316 µM
[20] = second compound 1 µM, first compound 0.1 µM
[21] = second compound 1 µM, first compound 0.316 µM
[22] = second compound 1 µM, first compound 1 µM
[23] = second compound 1 µM, first compound 3.16 µM
[24] = second compound 1 µM, first compound 10 µM
[25] = second compound 3.16 µM, first compound 0.0316 µM
[26] = second compound 3.16 µM, first compound 0.1 µM
[27] = second compound 3.16 µM, first compound 0.316 µM
[28] = second compound 3.16 µM, first compound 1 µM
[29] = second compound 3.16 µM, first compound 3.16 µM
[30] = second compound 3.16 µM, first compound 10 µM
[31] = second compound 10 µM, first compound 0.0316 µM
[32] = second compound 10 µM, first compound 0.1 µM
[33] = second compound 10 µM, first compound 0.316 µM
[34] = second compound 10 µM, first compound 1 µM
[35] = second compound 10 µM, first compound 3.16 µM
[36] = second compound 10 µM, first compound 10 µM
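Further: spheroids exposed to drugs for seven days.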
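Wherever viability, T/C is given: 100% = DMSO vehicle control viability.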

COc1cc(C2c3cc4c(cc3C(OC3OC5COC(C)OC5C(O)C3O)C3COC(=O)C23)OCO4)cc(OC)c1O (stereo unspecified) + CN(C)c1ccc(Nc2c3ccc(NC(=O)CCN4CCCC4)cc3nc3cc(NC(=O)CCN4CCCC4)ccc23)cc1
IC50 (second compound 0.0316 µM): > 10 µM | IC50 (second compound 0.1 µM): > 10 µM | IC50 (second compound 0.316 µM): > 10 µM | IC50 (second compound 1 µM): > 10 µM | IC50 (second compound 3.16 µM): > 10 µM | IC50 (second compound 10 µM): 3.31 µM | viability, T/C [1]: 95.7% | viability, T/C [2]: 106% | viability, T/C [3]: 98.9% | viability, T/C [4]: 90.4% | viability, T/C [5]: 87% | viability, T/C [6]: 98.8% | viability, T/C [7]: 75.8% | viability, T/C [8]: 88.2% | viability, T/C [9]: 92.7% | viability, T/C [10]: 82.3% | viability, T/C [11]: 77.7% | viability, T/C [12]: 78.4% | viability, T/C [13]: 60.1% | viability, T/C [14]: 69% | viability, T/C [15]: 55.5% | viability, T/C [16]: 69.4% | viability, T/C [17]: 61.2% | viability, T/C [18]: 61.3% | viability, T/C [19]: 56.6% | viability, T/C [20]: 45.2% | viability, T/C [21]: 58.5% | viability, T/C [22]: 62.3% | viability, T/C [23]: 55.4% | viability, T/C [24]: 55% | viability, T/C [25]: 54.8% | viability, T/C [26]: 49% | viability, T/C [27]: 52.2% | viability, T/C [28]: 56.5% | viability, T/C [29]: 61.5% | viability, T/C [30]: 54.6% | viability, T/C [31]: 46.8% | viability, T/C [32]: 59.5% | viability, T/C [33]: 47.3% | viability, T/C [34]: 57.4% | viability, T/C [35]: 45.7% | viability, T/C [36]: 48.5%

Nc1ccn(C2OC(CO)C(O)C2(F)F)c(=O)n1 (stereo unspecified) + CN(C)c1ccc(Nc2c3ccc(NC(=O)CCN4CCCC4)cc3nc3cc(NC(=O)CCN4CCCC4)ccc23)cc1
IC50 (second compound 0.0316 µM): > 10 µM | IC50 (second compound 0.1 µM): > 10 µM | IC50 (second compound 0.316 µM): > 10 µM | IC50 (second compound 1 µM): > 10 µM | IC50 (second compound 3.16 µM): > 10 µM | IC50 (second compound 10 µM): > 10 µM | viability, T/C [1]: 97.1% | viability, T/C [2]: 109% | viability, T/C [3]: 96.2% | viability, T/C [4]: 90.6% | viability, T/C [5]: 79.6% | viability, T/C [6]: 59% | viability, T/C [7]: 86.1% | viability, T/C [8]: 88.6% | viability, T/C [9]: 89.7% | viability, T/C [10]: 94.5% | viability, T/C [11]: 73.8% | viability, T/C [12]: 65% | viability, T/C [13]: 71.8% | viability, T/C [14]: 78.7% | viability, T/C [15]: 59.6% | viability, T/C [16]: 56.3% | viability, T/C [17]: 56.6% | viability, T/C [18]: 66.9% | viability, T/C [19]: 70.8% | viability, T/C [20]: 53.9% | viability, T/C [21]: 53.6% | viability, T/C [22]: 51% | viability, T/C [23]: 57.9% | viability, T/C [24]: 57.8% | viability, T/C [25]: 64.2% | viability, T/C [26]: 60.5% | viability, T/C [27]: 56% | viability, T/C [28]: 58.1% | viability, T/C [29]: 44.7% | viability, T/C [30]: 53.8% | viability, T/C [31]: 56.7% | viability, T/C [32]: 57.9% | viability, T/C [33]: 47.5% | viability, T/C [34]: 65.9% | viability, T/C [35]: 61.4% | viability, T/C [36]: 47.2%

O=c1[nH]cc(F)c(=O)[nH]1 + CN(C)c1ccc(Nc2c3ccc(NC(=O)CCN4CCCC4)cc3nc3cc(NC(=O)CCN4CCCC4)ccc23)cc1
IC50 (second compound 0.0316 µM): > 10 µM | IC50 (second compound 0.1 µM): > 10 µM | IC50 (second compound 0.316 µM): > 10 µM | IC50 (second compound 1 µM): > 10 µM | IC50 (second compound 3.16 µM): > 10 µM | IC50 (second compound 10 µM): > 10 µM | viability, T/C [1]: 93.7% | viability, T/C [2]: 83.7% | viability, T/C [3]: 108% | viability, T/C [4]: 108% | viability, T/C [5]: 90.2% | viability, T/C [6]: 103% | viability, T/C [7]: 92% | viability, T/C [8]: 76.5% | viability, T/C [9]: 80.5% | viability, T/C [10]: 88.5% | viability, T/C [11]: 75.1% | viability, T/C [12]: 103% | viability, T/C [13]: 69.1% | viability, T/C [14]: 62.3% | viability, T/C [15]: 60.1% | viability, T/C [16]: 61% | viability, T/C [17]: 72.2% | viability, T/C [18]: 61.8% | viability, T/C [19]: 66.8% | viability, T/C [20]: 62.9% | viability, T/C [21]: 63.7% | viability, T/C [22]: 66.2% | viability, T/C [23]: 52.2% | viability, T/C [24]: 59.3% | viability, T/C [25]: 59.3% | viability, T/C [26]: 58.5% | viability, T/C [27]: 54.9% | viability, T/C [28]: 57.9% | viability, T/C [29]: 69.8% | viability, T/C [30]: 62.4% | viability, T/C [31]: 49.8% | viability, T/C [32]: 54.9% | viability, T/C [33]: 51.5% | viability, T/C [34]: 46.1% | viability, T/C [35]: 51.3% | viability, T/C [36]: 59.1%
